Experimental data from US20240018140A1, “MODIFIED IMIDAZOPYRIDINES AS GLUCOSYLCERAMIDE SYNTHASE INHIBITORS” (Merck Sharp & Dohme LLC, priority 2020, published 2024).

These molecules were tested against glucosylceramide synthase (GCS) (Homo sapiens (Human), UniProt Q16739) (assay: UDP-Glo glucosylceramide synthase biochemical assay). Conditions: endogenous GCS in Golgi preparations from human A375 malignant melanoma skin cells; C6 ceramide and UDP-glucose substrates; 20 h incubation; UDP detected by luminescence.
Summary of the method: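 Endogenous GCS in Golgi preparations from A375 melanoma cells (1.5 μg total protein) preincubated 30 min at room temperature with compound. UDP-glucose and ceramide then added for 20 h at room temperature; UDP measured by luciferase luminescence. Normalized to DMSO (0%) and reference inhibitor (100%); EC50 and % Emax from 4PL fit.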

glucosylceramide synthase (GCS), sequence (Q16739 whole entry): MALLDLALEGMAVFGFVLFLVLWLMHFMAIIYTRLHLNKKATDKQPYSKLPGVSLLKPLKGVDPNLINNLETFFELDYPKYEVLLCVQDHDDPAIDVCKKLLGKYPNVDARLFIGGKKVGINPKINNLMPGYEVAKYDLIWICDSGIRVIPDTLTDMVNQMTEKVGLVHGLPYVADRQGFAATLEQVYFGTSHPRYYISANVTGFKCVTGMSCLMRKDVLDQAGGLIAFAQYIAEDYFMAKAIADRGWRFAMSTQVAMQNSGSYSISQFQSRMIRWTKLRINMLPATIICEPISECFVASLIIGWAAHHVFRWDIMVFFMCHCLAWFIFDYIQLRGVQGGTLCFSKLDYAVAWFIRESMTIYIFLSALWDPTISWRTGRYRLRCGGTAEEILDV

Row | Compound | EC50 [nM]
1 | O=C(c1cn2cc(C(F)(F)F)cc(-c3ccccc3OCC(F)(F)F)c2n1)N1CCOC2(COC2)C1 [Compound 51, (2,5-dioxa-8-azaspiro[3.5]nonan-8-yl)(8-(2-(2,2,2-trifluoroethoxy)phenyl)-6-(trifluoromethyl)imidazo[1,2-a]pyridin-2-yl)methanone] | 0.51
2 | CN(CCN1CCCC1)C(=O)c1cn2cccc(-c3ccccc3OCC(F)(F)F)c2n1 [Compound 54, N-methyl-N-(2-(pyrrolidin-1-yl)ethyl)-8-(2-(2,2,2-trifluoroethoxy)phenyl)imidazo[1,2-a]pyridine-2-carboxamide] | 3
3 | O=C(c1cn2cccc(-c3ccccc3OCC(F)(F)F)c2n1)N1CCn2ccnc2C1 [Compound 55, (5,6-dihydroimidazo[1,2-a]pyrazin-7(8H)-yl)(8-(2-(2,2,2-trifluoroethoxy)phenyl)imidazo[1,2-a]pyridin-2-yl)methanone] | 2.9
4 | O=C(Nc1ccc[n+]([O-])c1)c1cn2cccc(-c3ccccc3OCC(F)(F)F)c2n1 [Compound 58, 3-(8-(2-(2,2,2-trifluoroethoxy)phenyl)imidazo[1,2-a]pyridine-2-carboxamido)pyridine-1-oxide] | 28
5 | N#Cc1cnccc1NC(=O)c1cn2cccc(-c3ccccc3OCC(F)(F)F)c2n1 [Compound 59, N-(3-cyanopyridin-4-yl)-8-(2-(2,2,2-trifluoroethoxy)phenyl)imidazo[1,2-a]pyridine-2-carboxamide] | 6
6 | O=C(Nc1cccnc1)c1cn2cc(F)cc(-c3ccccc3OCC(F)(F)F)c2n1 [Compound 61, 6-fluoro-N-(pyridin-3-yl)-8-(2-(2,2,2-trifluoroethoxy)phenyl)imidazo[1,2-a]pyridine-2-carboxamide] | 0.083
7 | OC(c1cn2cc(Cl)cc(-c3ccccc3OCC(F)(F)F)c2n1)C1CC1 (stereo not drawn) [Compound 65, [6-chloro-8-[2-(2,2,2-trifluoroethoxy)phenyl]imidazo[1,2-a]pyridin-2-yl]-cyclopropyl-methanol] | 1.3
8 | CC(C)(O)c1cn2cc(Cl)cc(-c3ccccc3OCC(F)(F)F)c2n1 [Compound 66, 2-(6-chloro-8-(2-(2,2,2-trifluoroethoxy)phenyl)imidazo[1,2-a]pyridin-2-yl)propan-2-ol] | 15
9 | CN1CC2(CN=C(c3cn4cc(Cl)cc(-c5ccccc5OCC(F)(F)F)c4n3)O2)C1 [Compound 70, 6-[6-chloro-8-[2-(2,2,2-trifluoroethoxy)phenyl]imidazo[1,2-a]pyridin-2-yl]-2-methyl-5-oxa-2,7-diazaspiro[3.4]oct-6-ene] | 0.061
10 | OCC1COC(c2cn3cc(Cl)cc(-c4ccccc4OCC(F)(F)F)c3n2)=N1 (stereo not drawn) [Compound 72, [2-[6-chloro-8-[2-(2,2,2-trifluoroethoxy)phenyl]imidazo[1,2-a]pyridin-2-yl]-4,5-dihydrooxazol-4-yl]methanol] | 7.9
11 | CC1(CO)COC(c2cn3cc(Cl)cc(-c4ccccc4OCC(F)(F)F)c3n2)=N1 (stereo not drawn) [Compound 73, [2-[6-chloro-8-[2-(2,2,2-trifluoroethoxy)phenyl]imidazo[1,2-a]pyridin-2-yl]-4-methyl-5H-oxazol-4-yl]methanol] | 32
12 | CC(C)(O)C1COC(c2cn3cc(Cl)cc(-c4ccccc4OCC(F)(F)F)c3n2)=N1 (stereo not drawn) [Compound 75, 2-(2-(6-chloro-8-(2-(2,2,2-trifluoroethoxy)phenyl)imidazo[1,2-a]pyridin-2-yl)-4,5-dihydrooxazol-4-yl)propan-2-ol] | 30
13 | NCc1cn2cccc(-c3ccccc3OCC(F)(F)F)c2n1 [Compound 80, (8-(2-(2,2,2-trifluoroethoxy)phenyl)imidazo[1,2-a]pyridin-2-yl)methanamine] | 330
14 | O=C(Nc1ccc2cccc(-c3ccccc3OCC(F)(F)F)c2n1)[C@H]1C[C@@H](O)C1 [Compound 81, cis-3-hydroxy-N-(8-(2-(2,2,2-trifluoroethoxy)phenyl)quinolin-2-yl)cyclobutane-1-carboxamide] | 11
15 | O=C(Nc1ccc2cccc(-c3ccccc3OCC(F)(F)F)c2n1)[C@H]1C[C@H](O)C1 [Compound 82, trans-3-hydroxy-N-(8-(2-(2,2,2-trifluoroethoxy)phenyl)quinolin-2-yl)cyclobutane-1-carboxamide] | 3
16 | O=C(N[C@H]1C[C@@H](O)C1)c1cc2c(-c3ccccc3OCC(F)(F)F)cccc2cn1 [Compound 84] | 16

Further molecules by falling EC50, results first:

Row | EC50 [nM] | Compound
17 | 140 | CC(C)(C)NCc1cn2cccc(-c3ccccc3OCC(F)(F)F)c2n1 [Compound 79, 2-methyl-N-((8-(2-(2,2,2-trifluoroethoxy)phenyl)imidazo[1,2-a]pyridin-2-yl)methyl)propan-2-amine]
18 | 67 | CC(C)(O)c1cn2cc(Cl)cc(-c3ccc(F)cc3OCC(F)(F)F)c2n1 [Compound 67, 2-(6-chloro-8-(4-fluoro-2-(2,2,2-trifluoroethoxy)phenyl)imidazo[1,2-a]pyridin-2-yl) propan-2-ol]
19 | 32 | CC(C)(O)C1(C)COC(c2cn3cc(Cl)cc(-c4ccccc4OCC(F)(F)F)c3n2)=N1 (stereo not drawn) [Compound 78, 2-[2-[6-chloro-8-[2-(2,2,2-trifluoroethoxy)phenyl]imidazo[1,2-a]pyridin-2-yl]-4-methyl-5H-oxazol-4-yl]propan-2-ol]
20 | 30 | CC1(C)OCC1NC(=O)c1cn2cccc(-c3ccccc3OCC(F)(F)F)c2n1 (stereo not drawn) [Compound 53, N-(2,2-dimethyloxetan-3-yl)-8-(2-(2,2,2-trifluoroethoxy)phenyl)imidazo[1,2-a]pyridine-2-carboxamide]
21 | 30 | O=C(c1cn2cc(Cl)cc(-c3ccccc3OCC(F)(F)F)c2n1)N1C[C@H]2C(CO)[C@@H]2C1 (stereo partly drawn) [Compound 60, (6-chloro-8-(2-(2,2,2-trifluoroethoxy)phenyl)imidazo[1,2-a]pyridin-2-yl)((1R,5R)-6-(hydroxymethyl)-3-azabicyclo[3.1.0]hexan-3-yl)methanone]
22 | 17 | OCc1cn2cc(C(F)(F)F)cc(-c3ccccc3OCC(F)(F)F)c2n1 [Compound 62, (8-(2-(2,2,2-trifluoroethoxy)phenyl)-6-(trifluoromethyl)imidazo[1,2-a]pyridin-2-yl)methanol]
23 | 16 | CC1(CO)CN=C(c2cn3cc(Cl)cc(-c4ccccc4OCC(F)(F)F)c3n2)O1 (stereo not drawn) [Compound 71, (2-(6-chloro-8-(2-(2,2,2-trifluoroethoxy)phenyl)imidazo[1,2-a]pyridin-2-yl)-5-methyl-4,5-dihydrooxazol-5-yl)methanol]
24 | 15 | CC1(C)CN=C(c2cn3cc(Cl)cc(-c4ccccc4OCC(F)(F)F)c3n2)O1 [Compound 69, 2-(6-chloro-8-(2-(2,2,2-trifluoroethoxy)phenyl)imidazo[1,2-a]pyridin-2-yl)-5,5-dimethyl-4,5-dihydrooxazole]
25 | 13 | O=C(NCc1ccccn1)c1cn2cccc(-c3ccccc3OCC(F)(F)F)c2n1 [Compound 52, N-(pyridin-2-ylmethyl)-8-(2-(2,2,2-trifluoroethoxy)phenyl)imidazo[1,2-a]pyridine-2-carboxamide]
26 | 13 | CC(O)c1cn2cc(Cl)cc(-c3ccccc3OCC(F)(F)F)c2n1 (stereo not drawn) [Compound 64, 1-[6-chloro-8-[2-(2,2,2-trifluoroethoxy)phenyl]imidazo[1,2-a]pyridin-2-yl]ethanol]
27 | 13 | CC(C)(O)C1CN=C(c2cn3cc(Cl)cc(-c4ccccc4OCC(F)(F)F)c3n2)O1 (stereo not drawn) [Compound 76, 2-[2-[6-chloro-8-[2-(2,2,2-trifluoroethoxy)phenyl]imidazo[1,2-a]pyridin-2-yl]-4,5-dihydrooxazol-5-yl]propan-2-ol]
28 | 12 | NCC1CN=C(c2cn3cc(Cl)cc(-c4ccccc4OCC(F)(F)F)c3n2)O1 (stereo not drawn) [Compound 74, (2-(6-chloro-8-(2-(2,2,2-trifluoroethoxy)phenyl)imidazo[1,2-a]pyridin-2-yl)-4,5-dihydrooxazol-5-yl)methanamine]
29 | 10 | OC(c1cn2cc(F)cc(-c3ccccc3OCC(F)(F)F)c2n1)C1CCOCC1 (stereo not drawn) [Compound 68, (6-fluoro-8-(2-(2,2,2-trifluoroethoxy)phenyl)imidazo[1,2-a]pyridin-2-yl)(tetrahydro-2H-pyran-4-yl)methanol]
30 | 6.9 | O=C(Nc1ccc2c(F)ccc(-c3ccccc3OCC(F)(F)F)c2n1)[C@H]1C[C@H](O)C1 [Compound 83, trans-N-(5-fluoro-8-(2-(2,2,2-trifluoroethoxy)phenyl)quinolin-2-yl)-3-hydroxycyclobutane-1-carboxamide]
31 | 3.7 | CC(C)(O)C1(C)CN=C(c2cn3cc(Cl)cc(-c4ccccc4OCC(F)(F)F)c3n2)O1 (stereo not drawn) [Compound 77, 2-[2-[6-chloro-8-[2-(2,2,2-trifluoroethoxy)phenyl]imidazo[1,2-a]pyridin-2-yl]-5-methyl-4H-oxazol-5-yl]propan-2-ol]
32 | 0.45 | O=C(Nc1cnccc1F)c1cn2cccc(-c3ccccc3OCC(F)(F)F)c2n1 [Compound 57, N-(4-fluoropyridin-3-yl)-8-(2-(2,2,2-trifluoroethoxy)phenyl)imidazo[1,2-a]pyridine-2-carboxamide]
33 | 0.15 | Cc1ccncc1NC(=O)c1cn2cccc(-c3ccccc3OCC(F)(F)F)c2n1 [Compound 56, N-(4-methylpyridin-3-yl)-8-(2-(2,2,2-trifluoroethoxy)phenyl)imidazo[1,2-a]pyridine-2-carboxamide]
